Laboratory results as given in paper PMC7236083 (Hormones & cancer, 2020).

How the values were obtained:
[1] = target: T1, glucocorticoid receptor (GR) (Homo sapiens, UniProt P04150); experiment: fluorescence polarization competitive binding assay
T1 sequence (P04150 1-777): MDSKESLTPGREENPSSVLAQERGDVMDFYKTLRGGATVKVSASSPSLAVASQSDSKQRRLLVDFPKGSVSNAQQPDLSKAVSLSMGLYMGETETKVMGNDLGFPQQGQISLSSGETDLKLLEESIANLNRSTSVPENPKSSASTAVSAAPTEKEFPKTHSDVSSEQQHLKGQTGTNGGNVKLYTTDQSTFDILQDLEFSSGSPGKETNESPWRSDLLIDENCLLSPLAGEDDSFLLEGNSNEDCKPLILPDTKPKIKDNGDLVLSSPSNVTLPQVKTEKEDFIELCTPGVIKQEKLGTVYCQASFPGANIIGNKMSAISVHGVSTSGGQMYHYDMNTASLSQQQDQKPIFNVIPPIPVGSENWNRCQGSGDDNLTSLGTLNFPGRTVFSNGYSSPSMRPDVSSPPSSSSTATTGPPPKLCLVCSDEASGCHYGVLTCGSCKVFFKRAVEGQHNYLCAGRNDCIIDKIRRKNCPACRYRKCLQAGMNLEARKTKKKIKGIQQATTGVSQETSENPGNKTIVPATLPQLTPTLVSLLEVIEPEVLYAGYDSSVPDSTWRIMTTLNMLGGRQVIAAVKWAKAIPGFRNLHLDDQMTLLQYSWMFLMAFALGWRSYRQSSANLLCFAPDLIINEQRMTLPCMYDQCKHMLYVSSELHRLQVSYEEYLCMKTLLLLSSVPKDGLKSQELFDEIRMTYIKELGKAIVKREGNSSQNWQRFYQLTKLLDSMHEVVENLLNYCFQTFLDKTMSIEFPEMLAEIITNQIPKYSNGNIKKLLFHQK

[2] = target: T2, progesterone receptor (PR) (Homo sapiens, UniProt P06401); experiment: as above
T2 sequence (P06401 675-933): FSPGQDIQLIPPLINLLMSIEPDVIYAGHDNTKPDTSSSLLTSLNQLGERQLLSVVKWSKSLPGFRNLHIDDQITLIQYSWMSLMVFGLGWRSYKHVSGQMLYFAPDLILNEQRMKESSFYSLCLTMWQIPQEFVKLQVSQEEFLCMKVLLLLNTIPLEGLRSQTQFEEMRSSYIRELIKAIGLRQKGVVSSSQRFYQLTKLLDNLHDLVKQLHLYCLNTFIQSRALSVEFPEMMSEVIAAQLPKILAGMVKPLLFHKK

O=c1cc(-c2ccccc2)oc2cc(O)c(O)c(O)c12 [baicalein]
IC50 [1]: 19.3 µM | IC50 [2]: 15.3 µM
